The source of these data is patent US6933309B2, “Halogenobenzyl aminopropionic acid derivatives” (Toaeiyo Ltd., priority 2002, dated 2005).

For data set [1], the system named is male KKA^y mice (obesity/noninsulin-dependent diabetes mellitus model). The data set can be described thus: Blood glucose lowering effect and blood lipid (blood TG and blood FFA) lowering effect in mice. It is filed as in vivo. To be noted: 1 mg/kg/day oral, once a day over seven days, plasma on the day following final administration, vs control group; for inhibition in vivo at 1 mg/kg/day: Mus musculus, po, 168 h. As for the experimental part:
Blood glucose Lowering Effect and Blood Lipid (Blood TG and Blood FFA) Lowering Effect in Mice
Each of the test compounds was suspended in a 0.5-%(w/v) sodium CMC solution, and the suspension was forcedly administered via oral route once a day over seven days to male KKA^y mice (obesity/noninsulin-dependent diabetes mellitus model, 6 to 7 weeks old, 3 to 5 animals per group) (1 mg/kg/day). During this 7-day period, feed and water were taken ad libitum. On the day following the final administration, blood was drawn from the tail vein without anesthesia and centrifuged, to thereby prepare plasma samples. Plasma glucose level, plasma TG level, and plasma FFA level of the samples were determined through the enzymatic method by use of an L-type Wako Glu2 (Wako Pure Chemical Industries), an L-type Wako TG-H (Wako Pure Chemical Industries), and an NEFA-HA Test Wako (Wako Pure Chemical Industries), respectively, by means of a full-automated clinical chemistry analyzer (CL-8000, Shimadzu Corporation). Percent reduction was determined from the obtained values by use of the following equations.

Data set [2] relates to KKA^y mice. In words: Plasma adiponectin level in KKA^y mice after two weeks of oral administration. It is filed as in vivo. To be noted: over two weeks, 0.1, 0.3, or 1 mg/kg/day. Here is the method: Separately, the present compound (1) or a salt thereof was orally administered to KKA^y mice over two weeks (0.1, 0.3, or 1 mg/kg/day), and plasma adiponectin level of each mouse was determined.

Setting [3] is: read-out: Percent reduction of blood FFA level.
Where [4] appears, read: read-out: Percent reduction of blood TG level.
Where [5] appears, read: read-out: Percent reduction of blood glucose level.

Read-outs that look alike come from different tables or passages of the source.

Usually melting point stands for the temperature of the solid-liquid transition. On to `Cc1oc(-c2ccccc2)nc1CCOc1ccc(C[C@H](NCc2c(F)cccc2F)C(=O)O)cc1` [Compound 28, (S)-3-[4-[2-(5-Methyl-2-phenyl-1,3-oxazol-4-yl)ethoxy]phenyl]-2-(2,6-difluorobenzylamino)propionic Acid], for which the melting point is 165 to 167 °C. In addition, in data set [1] (setting [3]), the inhibition in vivo at 1 mg/kg/day was 54%. Also, the inhibition in vivo at 1 mg/kg/day in data set [1] (setting [4]) was determined as 65%. Further, in data set [1] (setting [5]), the inhibition in vivo at 1 mg/kg/day worked out at 50%.
`Cc1sc(-c2ccccc2)nc1CCOc1ccc(C[C@H](NCc2ccc(F)cc2)C(=O)O)cc1` [Compound 22, (S)-3-[4-[2-(5-Methyl-2-phenyl-1,3-thiazol-4-yl)ethoxy]phenyl]-2-(4-fluorobenzylamino)propionic Acid]: the melting point fell in the range of 192 to 195 °C. Also, the inhibition in vivo at 1 mg/kg/day in data set [1] (setting [3]) was 36%. In addition, in data set [1] (setting [4]), the inhibition in vivo at 1 mg/kg/day is 53%. Besides, in data set [1] (setting [5]), the inhibition in vivo at 1 mg/kg/day is 33%.
For the compound `Cc1oc(-c2ccccc2)nc1CCOc1ccc(C[C@H](NCc2ccc(Cl)cc2)C(=O)O)cc1` [Compound 31, (S)-3-[4-[2-(5-Methyl-2-phenyl-1,3-oxazol-4-yl)ethoxy]phenyl]-2-(4-chlorobenzylamino)propionic Acid], the melting point lay within 197 to 199 °C.
`Cc1oc(-c2ccccc2)nc1CCOc1ccc(C[C@@H](C(=O)O)N(C)Cc2ccc(F)cc2)cc1` [Compound 34, (S)-3-[4-[2-(5-Methyl-2-phenyl-1,3-oxazol-4-yl)ethoxy]phenyl]-2-[N-(4-fluorobenzyl)-N-methylamino]propionic Acid] came in with a melting point of 142 to 145 °C.
Compound `Cc1oc(-c2ccccc2)nc1CCOc1ccc(C[C@H](NCc2ccc(F)cc2)C(=O)[O-])cc1.[Na+]` [Compound 35, Sodium (S)-3-[4-[2-(5-methyl-2-phenyl-1,3-oxazol-4-yl)ethoxy]phenyl]-2-(4-fluorobenzylamino)propionate] showed a melting point of 179 to 181 °C. Also, the “Percent reduction of blood glucose level” value in data set [1] is recorded as 36%. The inhibition in vivo at 1 mg/kg/day in data set [1] (setting [3]) came out at 33%. Besides, the inhibition in vivo at 1 mg/kg/day in data set [1] (setting [4]) was found to be 47%.
Take `Cc1oc(-c2ccccc2)nc1CCOc1ccc(C[C@H](NCc2ccc(F)cc2F)C(=O)O)cc1` [Compound 25, (S)-3-[4-[2-(5-Methyl-2-phenyl-1,3-oxazol-4-yl)ethoxy]phenyl]-2-(2,4-difluorobenzylamino)propionic Acid]: the melting point was in the range of 190 to 192 °C.
`Cc1oc(-c2ccc(C(F)(F)F)cc2)nc1CCOc1ccc(C[C@H](NCc2ccc(F)cc2)C(=O)O)cc1` [Compound 21, (S)-3-[4-[2-[5-Methyl-2-(4-trifluoromethylphenyl)-1,3-oxazol-4-yl]ethoxy]phenyl]-2-(4-fluorobenzylamino)propionic Acid] gave a melting point of 202 to 204 °C.
Same read-out and setting: as for `Cc1oc(-c2ccc(F)cc2)nc1CCOc1ccc(C[C@H](NCc2ccc(F)cc2)C(=O)O)cc1` [Compound 19, (S)-3-[4-[2-[2-(4-Fluorophenyl)-5-methyl-1,3-oxazol-4-yl]ethoxy]phenyl]-2-(4-fluorobenzylamino)propionic Acid], the figure is 191 to 193 °C.
`Cc1oc(-c2ccccc2)nc1CCOc1ccc(C[C@H](NCc2ccccc2Cl)C(=O)O)cc1` [Compound 32, (S)-3-[4-[2-(5-Methyl-2-phenyl-1,3-oxazol-4-yl)ethoxy]phenyl]-2-(2-chlorobenzylamino)propionic Acid] had a melting point of 143 to 145 °C. Further, the inhibition in vivo at 1 mg/kg/day in data set [1] (setting [3]) came to 13%. The inhibition in vivo at 1 mg/kg/day in data set [1] (setting [4]) stood at 33%. The inhibition in vivo at 1 mg/kg/day in data set [1] (setting [5]) worked out at 39%.
Taken in the same sequence, the figures for `Cc1oc(-c2ccccc2)nc1CCOc1ccc(C[C@H](NCc2cccc(F)c2F)C(=O)O)cc1` [Compound 27, (S)-3-[4-[2-(5-Methyl-2-phenyl-1,3-oxazol-4-yl)ethoxy]phenyl]-2-(2,3-difluorobenzylamino)propionic Acid] were 173 to 175 °C, 16%, 48% and 40%.
In turn, `Cc1oc(-c2ccccc2)nc1CCOc1ccc(C[C@H](NCc2ccc(F)cc2)C(=O)O)cc1.Cl` returned a melting point of 198 to 200 °C.
The compound `CCOC(=O)[C@H](Cc1ccc(OCCc2nc(-c3ccccc3)oc2C)cc1)NCc1ccc(F)cc1.CS(=O)(=O)O` [Compound 38, Ethyl(S)-3-[4-[2-(5-methyl-2-phenyl-1,3-oxazol-4-yl)ethoxy]phenyl]-2-(4-fluorobenzylamino)propionate methanesulfonate] displayed a melting point of 144 °C. In addition, in data set [1] (setting [3]), the inhibition in vivo at 1 mg/kg/day amounted to 16%. In addition, in data set [1] (setting [4]), the inhibition in vivo at 1 mg/kg/day was 33%. Moreover, the inhibition in vivo at 1 mg/kg/day in data set [1] (setting [5]) was 25%.
The compound `Cc1sc(N2CCOCC2)nc1CCOc1ccc(C[C@H](NCc2ccc(F)cc2)C(=O)O)cc1` [Compound 23, (S)-3-[4-[2-[5-Methyl-2-(morpholin-4-yl)-1,3-thiazol-4-yl]ethoxy]phenyl]-2-(4-fluorobenzylamino)propionic Acid] returned a melting point of 192 to 194 °C.
As for `Cc1oc(-c2ccccc2)nc1CCOc1ccc(C[C@H](NCc2c(F)cc(F)cc2F)C(=O)O)cc1` [Compound 29, (S)-3-[4-[2-(5-Methyl-2-phenyl-1,3-oxazol-4-yl)ethoxy]phenyl]-2-(2,4,6-trifluorobenzylamino)propionic Acid], the melting point was in the range of 168 to 170 °C. The inhibition in vivo at 1 mg/kg/day in data set [1] (setting [3]) turned out to be 58%. The inhibition in vivo at 1 mg/kg/day in data set [1] (setting [4]) was determined as 74%. For the same compound, in data set [1] (setting [5]), the inhibition in vivo at 1 mg/kg/day is 43%.
`Cc1oc(-c2ccccc2)nc1CCOc1ccc(C[C@H](NCc2ccccc2F)C(=O)O)cc1` [Compound 24, (S)-3-[4-[2-(5-Methyl-2-phenyl-1,3-oxazol-4-yl)ethoxy]phenyl]-2-(2-fluorobenzylamino)propionic Acid] displayed a melting point of 191 to 193 °C.
The compound `Cc1oc(-c2ccccc2)nc1CCOc1ccc(C[C@H](NCc2ccc(F)cc2)C(=O)O)cc1` [Compound 18, (S)-3-[4-[2-(5-Methyl-2-phenyl-1,3-oxazol-4-yl)ethoxy]phenyl]-2-(4-fluorobenzylamino)propionic Acid] showed a melting point of 184.5 to 186.5 °C. In data set [2], the “effect of increasing plasma adiponectin level” value was “particularly excellent effect of increasing plasma adiponectin level”. In data set [1], the “Percent reduction of blood FFA level” value is 27%, the “Percent reduction of blood TG level” value amounted to 40% and the “Percent reduction of blood glucose level” value stood at 15%.
`Cc1ccc(-c2nc(CCOc3ccc(C[C@H](NCc4ccc(F)cc4)C(=O)O)cc3)c(C)o2)cc1` [Compound 20, (S)-3-[4-[2-[5-Methyl-2-(4-methylphenyl)-1,3-oxazol-4-yl]ethoxy]phenyl]-2-(4-fluorobenzylamino)propionic Acid]: the melting point lay within 196 to 198 °C. Besides, the inhibition in vivo at 1 mg/kg/day in data set [1] (setting [3]) was 25%. In data set [1] (setting [4]), the inhibition in vivo at 1 mg/kg/day turned out to be 36%. The inhibition in vivo at 1 mg/kg/day in data set [1] (setting [5]) stood at 21%.
In the case of `Cc1oc(-c2ccccc2)nc1CCOc1ccc(C[C@H](NCc2ccccc2)C(=O)O)cc1` [Comparative Compound 1, (S)-3-[4-[2-(5-Methyl-2-phenyl-1,3-oxazol-4-yl)ethoxy]phenyl]-2-(benzylamino)propionic Acid], the melting point fell in the range of 206 to 209 °C. For the same compound, in data set [1] (setting [3]), the inhibition in vivo at 1 mg/kg/day is -2%. Moreover, the inhibition in vivo at 1 mg/kg/day in data set [1] (setting [4]) was determined as 17%. Besides, the inhibition in vivo at 1 mg/kg/day in data set [1] (setting [5]) was 12%.
As for `Cc1oc(-c2ccccc2)nc1CCOc1ccc(C[C@H](NCc2ccc(F)c(F)c2)C(=O)O)cc1` [Compound 26, (S)-3-[4-[2-(5-Methyl-2-phenyl-1,3-oxazol-4-yl)ethoxy]phenyl]-2-(3,4-difluorobenzylamino)propionic Acid], the melting point lay in the range of 202 to 204 °C.
The compound `Cc1oc(-c2ccccc2)nc1CCOc1ccc(C[C@H](NCc2ccc(Br)cc2)C(=O)O)cc1` [Compound 33, (S)-3-[4-[2-(5-Methyl-2-phenyl-1,3-oxazol-4-yl)ethoxy]phenyl]-2-(4-bromobenzylamino)propionic Acid] yielded a melting point of 196 to 199 °C.
